# From ChEMBL document CHEMBL5505979, “Novel aminothiazoximone-corbelled ethoxycarbonylpyrimidones with antibiofilm activity to conquer Gram-negative bacteria through potential multitargeting effects” (Eur J Med Chem, 2024)
# Several values for one entry are separate records, joined by “and”; a condition that tells them apart may be missing. Identical values can stand only once.
# What was measured:
# Type in all cases: functional
# Staphylococcus aureus [1] = experiment: Anti-bacterial activity against methicillin-resistant Staphylococcus aureus N315 assessed as inhibition of bacterial growth
# Staphylococcus aureus [2] = experiment: Anti-bacterial activity against methicillin-resistant Staphylococcus aureus ATCC 43300 assessed as inhibition of bacterial growth
# Enterococcus faecalis = experiment: Anti-bacterial activity against Enterococcus faecalis V583 assessed as inhibition of bacterial growth
# Klebsiella pneumoniae = experiment: Anti-bacterial activity against Klebsiella pneumoniae KPN325 assessed as inhibition of bacterial growth
# Staphylococcus aureus [3] = experiment: Anti-bacterial activity against Staphylococcus aureus ATCC 1708 assessed as inhibition of bacterial growth
# Staphylococcus aureus [4] = experiment: Anti-bacterial activity against Staphylococcus aureus ATCC 25923 assessed as inhibition of bacterial growth
# Staphylococcus aureus [5] = experiment: Anti-bacterial activity against Staphylococcus aureus ATCC 29213 assessed as inhibition of bacterial growth
# Staphylococcus aureus [6] = experiment: Anti-bacterial activity against Staphylococcus aureus ATCC 12600 assessed as inhibition of bacterial growth
# Staphylococcus aureus [7] = experiment: Anti-bacterial activity against Staphylococcus aureus ATCC 6538 assessed as inhibition of bacterial growth
# Staphylococcus aureus [8] = experiment: Anti-bacterial activity against Staphylococcus aureus CMCC (B) 26003 assessed as inhibition of bacterial growth
# Staphylococcus aureus [9] = experiment: Anti-bacterial activity against Staphylococcus aureus CMCC (B) 26001 assessed as inhibition of bacterial growth
# Escherichia coli [10] = experiment: Anti-bacterial activity against Escherichia coli JM109 assessed as inhibition of bacterial growth
# Escherichia coli [11] = experiment: Anti-bacterial activity against Escherichia coli ATCC 25922 assessed as inhibition of bacterial growth
# Pseudomonas aeruginosa [12] = experiment: Anti-bacterial activity against Pseudomonas aeruginosa ST235 assessed as inhibition of bacterial growth
# Pseudomonas aeruginosa [13] = experiment: Anti-bacterial activity against Pseudomonas aeruginosa ATCC 27853 assessed as inhibition of bacterial growth
# Pseudomonas aeruginosa [14] = experiment: Anti-bacterial activity against Pseudomonas aeruginosa ATCC 15442 assessed as inhibition of bacterial growth
# Pseudomonas aeruginosa [15] = experiment: Anti-bacterial activity against Pseudomonas aeruginosa ATCC 9027 assessed as inhibition of bacterial growth
# Pseudomonas aeruginosa [16] = experiment: Anti-bacterial activity against Pseudomonas aeruginosa CMCC (B) 10104 assessed as inhibition of bacterial growth
# Acinetobacter baumannii = experiment: Anti-bacterial activity against Acinetobacter baumannii R674 assessed as inhibition of bacterial growth
# Candida albicans [17] = experiment: Anti-fungal activity against Candida albicans assessed as inhibition of fungal growth
# Candida albicans [18] = experiment: Anti-fungal activity against Candida albicans 90023 assessed as inhibition of fungal growth
# Candida tropicalis = experiment: Anti-fungal activity against Candida tropicalis assessed as inhibition of fungal growth
# Candida parapsilosis = experiment: Anti-fungal activity against Candida parapsilosis assessed as inhibition of fungal growth
# [19] = Staphylococcus aureus, N315, read-out: MIC
# [20] = Staphylococcus aureus, ATCC 43300, read-out: MIC
# [21] = Klebsiella pneumoniae, KPN325, read-out: MIC
# [22] = Staphylococcus aureus, ATCC 1708, read-out: MIC
# [23] = Staphylococcus aureus, ATCC 25923, read-out: MIC
# [24] = Staphylococcus aureus, ATCC 29213, read-out: MIC
# [25] = Staphylococcus aureus, ATCC 12600, read-out: MIC
# [26] = Pseudomonas aeruginosa, ST235, read-out: MIC
# [27] = Pseudomonas aeruginosa, ATCC 27853, read-out: MIC
# [28] = Pseudomonas aeruginosa, ATCC 15442, read-out: MIC
# [29] = Pseudomonas aeruginosa, CMCC (B) 10104, read-out: MIC
# [30] = Candida albicans, read-out: MIC
# [31] = Candida tropicalis, read-out: MIC
# [32] = Lodderomyces parapsilosis, read-out: MIC
SMILES,MIC (Enterococcus faecalis) [µM],MIC (Klebsiella pneumoniae; [21]) [µM],MIC (Staphylococcus aureus [3]; [22]) [µM],MIC (Staphylococcus aureus [4]; [23]) [µM],MIC (Staphylococcus aureus [5]; [24]) [µM],MIC (Staphylococcus aureus [6]; [25]) [µM],MIC (Staphylococcus aureus [7]) [µM],MIC (Staphylococcus aureus [8]) [µM],MIC (Staphylococcus aureus [9]) [µM],MIC (Escherichia coli [10]) [µM],MIC (Escherichia coli [11]) [µM],MIC (Pseudomonas aeruginosa [12]; [26]) [µM],MIC (Pseudomonas aeruginosa [13]; [27]) [µM],MIC (Pseudomonas aeruginosa [14]; [28]) [µM],MIC (Pseudomonas aeruginosa [15]) [µM],MIC (Pseudomonas aeruginosa [16]; [29]) [µM],MIC (Candida albicans [17]; [30]) [µM],MIC (Candida albicans [18]) [µM],MIC (Candida tropicalis; [31]) [µM],MIC (Candida parapsilosis; [32]) [µM],also measured
CCCCc1nc(Cl)c(C2NC(=O)NC(CN3CCN(CC(=O)c4nccs4)CC3)=C2C(=O)OCC)[nH]1 (stereo not given),117,117,117,29,58,58,29,117,15,58,58,58,58,58,58,58,466,29,466,466,MIC (Staphylococcus aureus [1]; [19]): 117 µM; MIC (Staphylococcus aureus [2]; [20]): 58 µM; MIC (Acinetobacter baumannii): 58 µM
CCOC(=O)C1=C(CN2CCN(C(=O)/C(=N/OC)c3csc(N)n3)CC2)NC(=O)NC1c1nccs1 (stereo not given),240,240,240,240,479,120,120,240,60,240,60,30,15,120,60,240,479,60,60,479,MIC (Staphylococcus aureus [1]; [19]): 240 µM; MIC (Staphylococcus aureus [2]; [20]): 120 µM; MIC (Acinetobacter baumannii): 479 µM
CCOC(=O)C1=C(CN2CCN(C(=O)/C(=N/OC)c3csc(N)n3)CC2)NC(=O)NC1c1ccc(C(F)(F)F)cc1 (stereo not given),27,108,27,27,27,27,54,108,54,27,27,54,54,54,54,27,430,7,430,430,MIC (Staphylococcus aureus [1]; [19]): 108 µM; MIC (Staphylococcus aureus [2]; [20]): 27 µM; MIC (Acinetobacter baumannii): 27 µM
CCCCc1nc(Cl)c(C2NC(=O)NC(CN3CCN(CC(O)c4nccs4)CC3)=C2C(=O)OCC)[nH]1 (stereo not given),–,199,–,50,50,50,99,199,–,–,–,199,–,–,–,199,455,–,–,455,MIC (Staphylococcus aureus [1]): 199 µM and 466 µM; MIC (Staphylococcus aureus [2]): 50 µM and 116 µM; MIC (Klebsiella pneumoniae): 233 µM; MIC (Staphylococcus aureus [3]): 99 µM and 233 µM; MIC (Staphylococcus aureus [4]): 58 µM; MIC (Staphylococcus aureus [5]): 58 µM; MIC (Staphylococcus aureus [6]): 58 µM; MIC (Pseudomonas aeruginosa [12]): 116 µM; MIC (Pseudomonas aeruginosa [13]): 50 µM and 116 µM; MIC (Pseudomonas aeruginosa [14]): 50 µM and 116 µM; MIC (Pseudomonas aeruginosa [16]): 116 µM; MIC (Candida albicans [17]): 466 µM; MIC (Candida tropicalis): 227 µM and 466 µM; MIC (Candida parapsilosis): 466 µM
CCOC(=O)C1=C(CN2CCN(C(=O)/C(=N/OC)c3csc(N)n3)CC2)NC(=O)NC1c1ccc(C#N)cc1 (stereo not given),29,116,58,58,58,58,58,–,232,29,29,58,58,58,58,58,460,115,460,460,MIC (Acinetobacter baumannii): 29 µM
CCCCc1nc(Cl)c(C2NC(=O)NC(CN3CCN(CC(=O)c4ccc(F)cc4)CC3)=C2C(=O)OCC)[nH]1 (stereo not given),57,229,114,57,57,57,229,114,57,114,114,57,57,114,114,114,457,29,457,457,MIC (Staphylococcus aureus [1]; [19]): 229 µM; MIC (Staphylococcus aureus [2]; [20]): 114 µM; MIC (Acinetobacter baumannii): 114 µM
OC(Cn1cncn1)(Cn1cncn1)c1ccc(F)cc1F [FLUCONAZOLE],–,–,–,–,–,–,–,–,–,–,–,–,–,–,–,–,13,7,26,13,–
